Results from PubChem BioAssay AID256 (DTP/NCI, 2004).
Toxic doses and inconclusive results are not listed. Rule for the calls: active = survival T/C of 150% or more; inactive = T/C below 125% in these data.

System: CD2F1 mice, L1210 leukemia ip, survival T/C
Assay: NCI In Vivo Anticancer Drug Screen. Data for tumor model L1210 Leukemia (intraperitoneal) in CD2F1 (CDF1) mice
Conditions: higher = longer survival
Outline: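 Mice carrying a transplanted tumor received test compound or vehicle alone. The value is the measurement in the treated group divided by that in the vehicle-treated control group.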

[1] = endpoint: mean survival time, dose: 100.0 mg/kg/injection, schedule: Q01DX009 (ip), vehicle: saline with Tween-80
[2] = endpoint: mean survival time, dose: 200.0 mg/kg/injection, schedule: Q01DX009 (ip), vehicle: saline with Tween-80
[3] = endpoint: mean survival time, dose: 400.0 mg/kg/injection, schedule: Q01DX009 (ip), vehicle: saline with Tween-80

Measured: T/C

N=c1nc2c3ccccc3nnn2c2ccccc12
inactive: endpoint: mean survival time, dose: 50.0 mg/kg/injection, schedule: Q01DX001 (ip), vehicle: Klucel (hydroxypropylcellulose) (HPC) 101 % of control | endpoint: mean survival time, dose: 100.0 mg/kg/injection, schedule: Q01DX001 (ip), vehicle: Klucel (hydroxypropylcellulose) (HPC) 112 % of control

O=C(O)C(Br)C(Br)c1ccccc1[N+](=O)[O-] (configuration not stated)
inactive: endpoint: mean survival time, dose: 12.5 mg/kg/injection, schedule: Q01DX009 (ip), vehicle: other 96 % of control | endpoint: mean survival time, dose: 25.0 mg/kg/injection, schedule: Q01DX009 (ip), vehicle: other 103 % of control | endpoint: mean survival time, dose: 50.0 mg/kg/injection, schedule: Q01DX009 (ip), vehicle: other 100 % of control | endpoint: mean survival time, dose: 100.0 mg/kg/injection, schedule: Q01DX009 (ip), vehicle: other 102 % of control | endpoint: mean survival time, dose: 200.0 mg/kg/injection, schedule: Q01DX009 (ip), vehicle: other 97 % of control

O=C(N/N=C/c1cccc([N+](=O)[O-])c1)c1ccc(Cl)cc1Cl
inactive: [1] 100 % of control | [2] 97 % of control | [3] 100 % of control

O=c1cc(C(F)(F)F)[nH]c2ccc(F)cc12
inactive: endpoint: mean survival time, dose: 5.0 mg/kg/injection, schedule: Q01DX009 (ip), vehicle: saline with Tween-80 101 % of control | endpoint: mean survival time, dose: 10.0 mg/kg/injection, schedule: Q01DX009 (ip), vehicle: saline with Tween-80 100 % of control | endpoint: mean survival time, dose: 20.0 mg/kg/injection, schedule: Q01DX009 (ip), vehicle: saline with Tween-80 96 % of control

COc1ccc2c(ccc3cc(OC)ccc32)c1
inactive: endpoint: mean survival time, dose: 50.0 mg/kg/injection, schedule: Q04DX002 (ip), vehicle: saline with Tween-80 93 % of control | endpoint: mean survival time, dose: 100.0 mg/kg/injection, schedule: Q04DX002 (ip), vehicle: saline with Tween-80 100 % of control | endpoint: mean survival time, dose: 200.0 mg/kg/injection, schedule: Q04DX002 (ip), vehicle: saline with Tween-80 93 % of control

N#Cc1c(Cl)cc(C2(O)C3C=CC2CC3)cc1Cl (configuration not stated)
inactive: endpoint: median survival time, dose: 25.0 mg/kg/injection, schedule: Q04DX002 (ip), vehicle: saline with Tween-80 112 % of control | endpoint: median survival time, dose: 50.0 mg/kg/injection, schedule: Q04DX002 (ip), vehicle: saline with Tween-80 100 % of control | endpoint: median survival time, dose: 100.0 mg/kg/injection, schedule: Q04DX002 (ip), vehicle: saline with Tween-80 100 % of control | endpoint: median survival time, dose: 200.0 mg/kg/injection, schedule: Q04DX002 (ip), vehicle: saline with Tween-80 112 % of control

CCCCCC1c2cc(O)ccc2OC1N1CCOCC1 (configuration not stated)
inactive: endpoint: median survival time, dose: 12.0 mg/kg/injection, schedule: Q01DX009 (ip), vehicle: saline with Tween-80 108 % of control | endpoint: median survival time, dose: 25.0 mg/kg/injection, schedule: Q01DX009 (ip), vehicle: saline with Tween-80 106 % of control | endpoint: median survival time, dose: 50.0 mg/kg/injection, schedule: Q01DX009 (ip), vehicle: saline with Tween-80 97 % of control | endpoint: median survival time, dose: 100.0 mg/kg/injection, schedule: Q01DX009 (ip), vehicle: saline with Tween-80 102 % of control | endpoint: median survival time, dose: 200.0 mg/kg/injection, schedule: Q01DX009 (ip), vehicle: saline with Tween-80 98 % of control

CC(C)CCNC(=O)NS(=O)(=O)c1ccc(N)cc1
inactive: endpoint: mean survival time, dose: 100.0 mg/kg/injection, schedule: Q04DX003 (ip), vehicle: saline with Tween-80 102 % of control | endpoint: mean survival time, dose: 200.0 mg/kg/injection, schedule: Q04DX003 (ip), vehicle: saline with Tween-80 102 % of control | endpoint: mean survival time, dose: 400.0 mg/kg/injection, schedule: Q04DX003 (ip), vehicle: saline with Tween-80 98 % of control

C[Si](C)C(Cl)Cl
inactive: endpoint: mean survival time, dose: 75.0 mg/kg/injection, schedule: Q01DX009 (ip), vehicle: saline with Tween-80 96 % of control | endpoint: mean survival time, dose: 150.0 mg/kg/injection, schedule: Q01DX009 (ip), vehicle: saline with Tween-80 98 % of control | endpoint: mean survival time, dose: 300.0 mg/kg/injection, schedule: Q01DX009 (ip), vehicle: saline with Tween-80 102 % of control

O=[N+]([O-])c1cccc(Cc2nncc3ccccc23)c1
inactive: [1] 96 % of control | [2] 94 % of control | [3] 94 % of control

c1ccc(/C(N=NC(c2ccccc2)(c2ccccc2)c2ccccc2)=C(/N=NC(c2ccccc2)(c2ccccc2)c2ccccc2)c2ccccc2)cc1
inactive: endpoint: mean survival time, dose: 100.0 mg/kg/injection, schedule: Q01DX001 (ip), vehicle: saline with Tween-80 91 % of control | endpoint: mean survival time, dose: 200.0 mg/kg/injection, schedule: Q01DX001 (ip), vehicle: saline with Tween-80 101 % of control | endpoint: mean survival time, dose: 400.0 mg/kg/injection, schedule: Q01DX001 (ip), vehicle: saline with Tween-80 89 % of control
